Measured values as given in patent US6452001B2, “Diazapane derivatives useful as antagonists of neurokinin 1 receptor and methods for their formation” (Hoffmann-La Roche Inc., priority 2000, dated 2002).
Counter-ions that a name gives are not always drawn.

Target: T1, human NK1 receptor (Homo sapiens, UniProt P25103)
T1 construct: expressed in transfected cells; host or cells: CHO cells infected using the Semliki virus expression system; membrane suspension
Test: NK1 receptor binding assay, [3H]substance P displacement
Conditions: affinity to the NK-1 receptor; human NK1 receptors in CHO cells, [3H]substance P 0.6 nM
Procedure: The affinity of test compounds for the NK1 receptor was evaluated at human NK1 receptors in CHO cells infected with the human NK1 receptor (using the Semliki virus expression system) and radiolabelled with [^3H]substance P (final concentration 0.6 nM). Binding assays were performed in HEPES buffer (50 mM, pH 7.4) containing BSA (0.04 %) leupeptin (8 μg/ml), MnCl2 (3 mM) and phosphoramidon (2 μM). Binding assays consisted of 250 μl of membrane suspension (1.25×10^5 cells/assay tube), […] of buffer of displacing agent and 125 μl of [^3H]substance P. Displacement curves were determined with at least seven concentrations of the compound. The assay tubes were incubated for 60 min at room temperature after which time the tube contents were rapidly filtered under vacuum through GF/C filters presoaked for 60 min with PEI (0.3 %) with 2×2 ml washed of HEPES buffer (50 mM, pH 7.4). The radioactivity retained on the filters was measured by scintillation counting. All assays were performed in triplicate in at least 2 separate experiments.

T1 sequence (P25103 whole entry): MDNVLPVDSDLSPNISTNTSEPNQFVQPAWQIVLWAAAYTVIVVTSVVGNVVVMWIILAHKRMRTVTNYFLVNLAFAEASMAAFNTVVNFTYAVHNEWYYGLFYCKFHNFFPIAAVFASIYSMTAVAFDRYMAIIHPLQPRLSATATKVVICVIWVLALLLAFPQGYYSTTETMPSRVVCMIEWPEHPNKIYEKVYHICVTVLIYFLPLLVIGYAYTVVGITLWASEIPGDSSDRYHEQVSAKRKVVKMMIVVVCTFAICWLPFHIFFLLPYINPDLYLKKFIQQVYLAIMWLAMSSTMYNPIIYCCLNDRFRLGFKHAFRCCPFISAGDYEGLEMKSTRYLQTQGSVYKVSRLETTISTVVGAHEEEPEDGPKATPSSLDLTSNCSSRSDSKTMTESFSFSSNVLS

## CN(C)Cc1nnc2n1C(Cc1ccc(Cl)c(Cl)c1)C(=O)N(Cc1cc(C(F)(F)F)cc(C(F)(F)F)c1)CC2 (racemic) [Example 23, (RS)-6-(3,5-Bis-trifluoromethyl-benzyl)-4-(3,4-dichloro-benzyl)-3-dimethylaminomethyl-7,8-dihydro-6H-1,2,3a,6-tetraaza-azulen-5-one]
  Ki: 4.37 nM

## COc1ccc2ccccc2c1CN1CCC(=O)N[C@@H](Cc2ccc(Cl)c(Cl)c2)C1=O [Example 15, (3S)-3-(3,4-Dichloro-benzyl)-1-(2-methoxy-naphthalen-1-yl-methyl)-[1,4]diazepane-2,5-dione]
  Ki: 3.24 nM

## Cc1ccc2ccccc2c1CN1CCC(=O)N[C@@H](Cc2ccc(Cl)c(Cl)c2)C1=O [Example 16, (3S)-3-(3,4-Dichloro-benzyl)-1-(2-methyl-naphthalen-1-yl-methyl)-[1,4]diazepane-2,5-dione]
  Ki: 3.8 nM

## O=C1C(Cc2ccc(Cl)c(Cl)c2)n2c(CCN3CCOCC3)nnc2CCN1Cc1cc(C(F)(F)F)cc(C(F)(F)F)c1 (racemic) [Example 21, (RS)-6-(3,5-Bis-trifluoromethyl-benzyl)-4-(3,4-dichloro-benzyl)-3-(2-morpholin-4-yl-ethyl)-7,8-dihydro-6H-1,2,3a,6-tetraaza-azulen-5-one]
  Ki: 3.89 nM

## COc1ccc2ccccc2c1CN1CCc2nncn2[C@@H](Cc2ccc(Cl)c(Cl)c2)C1=O [Example 19, (4S)-4-(3,4-Dichloro-benzyl)-6-(2-methoxy-naphthalen-1-yl-methyl)-7,8-dihydro-6H-1,2,3a,6-tetraaza-azulen-5-one]
  Ki: 1.74 nM

## CN1CCCCC1c1nnc2n1C(Cc1ccc(Cl)c(Cl)c1)C(=O)N(Cc1cc(C(F)(F)F)cc(C(F)(F)F)c1)CC2 (racemic) [Example 24, (RS)-6-(3,5-Bis-trifluoromethyl-benzyl)-4-(3,4-dichloro-benzyl)-3-(1-methyl-piperidin-2-yl)-7,8-dihydro-6H-1,2,3a,6-tetraaza-azulen-5-one]
  Ki: 5.62 nM

## O=C1C(Cc2ccc(Cl)c(Cl)c2)n2cnnc2CCN1Cc1cc(C(F)(F)F)cc(C(F)(F)F)c1 (racemic) [Example 20, (RS)-6-(3,5-Bis-trifluoromethyl-benzyl)-4-(3,4-dichloro-benzyl)-7,8-dihydro-6H-1,2,3a,6-tetraaza-azulen-5-one]
  Ki: 2.45 nM

## CCOc1ccc2ccccc2c1CN1CCC(=O)NC(Cc2ccc(Cl)c(Cl)c2)C1=O (racemic) [Example 17, (RS)-3-(3,4-Dichloro-benzyl)-1-(2-ethoxy-naphthalen-1-yl-methyl)-[1,4]diazepane-2,5-dione]
  Ki: 5.37 nM

## CCCN=C1CCN(Cc2cc(C(F)(F)F)cc(C(F)(F)F)c2)C(=O)C(Cc2ccc(Cl)c(Cl)c2)N1 (racemic) [Example 26, (RS)-1-(3,5-Bis-trifluoromethyl-benzyl)-3-(3,4-dichloro-benzyl)-5-propylimino-[1,4]diazepan-2-one hydrochloride]
  Ki: 7.08 nM
